Test results published in patent US20170112857A1, “Extended Release Aspirin” (New Haven Pharmaceuticals, Inc., priority 2015, published 2017).
Where two headings read alike, the source gives them in different places.

Key:
TxB2 = experiment: Urinary TxB2 excretion by GC/MS, basal and bradykinin-stimulated (Example 3); type: in vivo, human; conditions: for Basal urinary TxB2 levels over placebo: 24 hours post-dosing; for Bradykinin-stimulated TxB2 levels over placebo: 4 hours post-dosing
Text: […] This protocol was repeated two additional times. […] Statistical analysis was done using Wilcoxon rank sum test for continuous variables and the Pearson test for categorical variables.

platelet aggregation [1] = experiment: Multiplate platelet aggregation; type: in vivo, human; conditions: Visit 2 trough
Procedure: The main study consisted of a run-in phase where subjects were administered 81 mg, everyday (“QD”), of immediate release acetylsalicylic acid (“IR ASA”) for 7-28 days. […] During Visits 2 and 5 subjects were subjected to the following tests: (1) platelet aggregation measurements (a) AA induced, (b) collagen induced, and (c) Multiplate®; […] During Visits 3 and 6 subjects were subjected to the following tests: (1) platelet aggregation measurements (a) AA induced, (b) collagen induced, and (c) Multiplate®; […] For this study the trough level data are from the following timepoints: (1) for 81 mg—the data at Visit 2; […]

platelet aggregation [2] = conditions: 75 mg IR ASA; Würtz et al.; cited from earlier work
[3] = test system: serum 11-dehydro-thromboxane (TxB2) production; experiment: Single dose inhibition of serum TxB2 production (enzyme immunoassay); type: in vivo, human; conditions: highest doses: ER ASA 81 mg, 162.5 mg (Durlaza), 325 mg; IR ASA 40 mg and 81 mg
Procedure: (§1) Healthy adults were randomized to receive single doses of extended release ASA (“ER ASA”) at a dosage of 20 mg, 40 mg, 81 mg, 162.5 mg ER ASA (Durlaza®; New Haven Pharmaceuticals, Inc., North Haven, Conn.), or 325 mg, or immediate release ASA (“IR ASA”; aspirin powder USP; Letco Medical, Decatur, Ala.) at a dosage of 5 mg, 10 mg, 20 mg, 40 mg or 81 mg. […] For pharmacodynamic assessments, serum 11-dehydro-thromboxane (“TxB2”, a stable metabolite of thromboxane A2) levels were assessed using a validated enzyme immunoassay kit in serial blood samples collected 1 hour before dosing and at 0.5, 1, 2, 4, 8, 16, and 24 hours after drug administration.

[4] = Single dose ASA pharmacokinetics, IR ASA vs. ER ASA; type: in vivo, human; conditions: for AUC(0-t) / Cmax / Tmax: human, serum, oral, ASA
Procedure: as §1

Interleukin-8 (IL-8) = experiment: Bradykinin-stimulated Interleukin-8 serum levels (Example 4); type: in vivo, human
Procedure: Subjects of Group 1 were randomly administered a placebo, 81 mg IR ASA and 162.5 mg IR ASA. Subjects of Group 2 were randomly administered a placebo, 81 mg ER ASA and 162.5 mg ER ASA (Durlaza®). Each subject was prohibited from taking any aspirin for two weeks prior to being administered the randomly chosen drug daily for 1 week followed by a urine collection 24 hours after dosing. This protocol was repeated two additional times. For each urine collection TxB2 and 2, 3-dinor-6-keto-PGF1α (“prostacyclin”) levels were measured using gas chromatography-mass spectrometry (“GC/MS”). Statistical analysis was done using Wilcoxon rank sum test for continuous variables and the Pearson test for categorical variables.
Interleukin-8 (“IL-8”) serum levels (and Interleukin-6 levels, not shown) were measured both prior to and after administration of 0, 81 or 162.5 mg of either IR ASA or ER ASA.

[5] = test system: platelet aggregation / clot strength; experiment: Plateletmapping assay (TEG-6S analyzer); type: in vivo, human; conditions: Visit 2 trough
Procedure: The […]® assay ([…] is a registered trademark of Haemoscope Corp.) was conducted using a TEG®-6S analyzer (TEG is a registered trademark of Haemoscope Corp.) and results included parameters: […] For summary purposes the change in each parameter over 24 hours is calculated by subtracting the result at 24 hours from the result at 1 hour (i.e., absolute difference). […] For this study the trough level data are from the following timepoints: (1) for 81 mg-the data at Visit 2; […]

[6] = 81 mg IR, subjects compared with Visit 6 (sub-study)
[7] = single dose 5 mg, healthy adults
[8] = single dose 10 mg, healthy adults
[9] = single dose 20 mg, healthy adults
[10] = single dose 40 mg, healthy adults
[11] = single dose 81 mg, healthy adults

time required to reach the maximum concentration of ASA ([4]; all doses, single dose, healthy adults): 1 to 2 h | AUC(0-t) ([4]; 5 mg, single dose 5 mg, healthy adults, read-out: AUClast): 26.8 ng·h/mL | AUC(0-t) ([4]; 10 mg, single dose 10 mg, healthy adults, read-out: AUC0-8): 136 ng·h/mL | AUC(0-t) ([4]; 10 mg, single dose 10 mg, healthy adults, read-out: AUClast): 74.9 ng·h/mL | AUC(0-t) ([4]; 20 mg, single dose 20 mg, healthy adults, read-out: AUC0-8): 366 ng·h/mL | AUC(0-t) ([4]; 20 mg, single dose 20 mg, healthy adults, read-out: AUClast): 148 ng·h/mL | AUC(0-t) ([4]; 40 mg, single dose 40 mg, healthy adults, read-out: AUClast): 384 ng·h/mL | AUC(0-t) ([4]; 81 mg, single dose 81 mg, healthy adults, read-out: AUClast): 865 ng·h/mL | Cmax [4, 7]: 25.1 ng/mL | Tmax [4, 7]: 1.2 h | Cmax [4, 8]: 63.9 ng/mL | Tmax [4, 8]: 1.5 h | Cmax [4, 9]: 123 ng/mL | Tmax [4, 9]: 1.6 h | Cmax [4, 10]: 228 ng/mL | Tmax [4, 10]: 1.4 h | Cmax [4, 11]: 504 ng/mL | Tmax [4, 11]: 1.4 h | time period over which serum concentrations of ASA were maintained ([4]; single dose, 8 hours = sampling interval evaluated): 6 h
SMILES: CC(=O)Oc1ccccc1C(=O)O [IR ASA, acetylsalicylic acid]
Basal urinary TxB2 levels over placebo (TxB2; 81 mg daily for 1 week): significantly reduced | dose dependence of the effect on TxB2 synthesis (TxB2; 81 mg vs 162.5 mg): not seen | Bradykinin-stimulated TxB2 levels over placebo (TxB2; 81 mg): significantly reduced | Basal urinary TxB2 levels over placebo (TxB2; 162.5 mg daily for 1 week): significantly reduced | Bradykinin-stimulated TxB2 levels over placebo (TxB2; 162.5 mg): significantly reduced | selectivity for basal TxB2 production over prostacyclin production (TxB2; doses of 81 and 162.5 mg/d): selectively inhibit basal TxB2 production over prostacyclin production | MultiPlate (AU) AA (platelet aggregation [1]; 81 mg IR QD, main study): 17 ± 14 AU | MultiPlate (AU) ADP (platelet aggregation [1]; 81 mg IR QD, main study): 70 ± 24 AU | MultiPlate (AU) Collagen (platelet aggregation [1]; 81 mg IR QD, main study): 36 ± 17 AU | MultiPlate (AU) AA (platelet aggregation [1]; [6]): 24 ± 13 AU | MultiPlate (AU) ADP (platelet aggregation [1]; [6]): 77 ± 15 AU | MultiPlate (AU) Collagen (platelet aggregation [1]; [6]): 47 ± 18 AU | AA induced and collagen induced platelet aggregation 24 hours after administration (platelet aggregation [2]): significant increase | single dose inhibition of TxB2 production [3]: maintained during a 24-hour period | Bradykinin-stimulated IL-8 levels (Interleukin-8 (IL-8); 81 mg): increased | Bradykinin-stimulated IL-8 levels (Interleukin-8 (IL-8); 162.5 mg): increased | TEG PlateletMapping AA Aggregation ([5]; 81 mg IR QD, main study): 48 ± 29 | TEG PlateletMapping ADP Aggregation ([5]; 81 mg IR QD, main study): 74 ± 25 | TEG PlateletMapping MA (clot strength, mm) ([5]; 81 mg IR QD, main study): 65 ± 5 mm | TEG PlateletMapping MA-AA (mm) ([5]; 81 mg IR QD, main study): 39 ± 15 mm | TEG PlateletMapping MA-ADP (mm) ([5]; 81 mg IR QD, main study): 50 ± 18 mm | TEG PlateletMapping MA-fibrin (mm) ([5]; 81 mg IR QD, main study): 17 ± 11 mm | TEG PlateletMapping R (Clotting time, min) ([5]; 81 mg IR QD, main study): 6.8 ± 1.5 min | TEG PlateletMapping AA Aggregation [5, 6]: 75 ± 17 | TEG PlateletMapping ADP Aggregation [5, 6]: 73 ± 21 | TEG PlateletMapping MA (clot strength, mm) [5, 6]: 64 ± 3 mm | TEG PlateletMapping MA-AA (mm) [5, 6]: 54 ± 9 mm | TEG PlateletMapping MA-ADP (mm) [5, 6]: 52 ± 11 mm | TEG PlateletMapping MA-fibrin (mm) [5, 6]: 24 ± 12 mm | TEG PlateletMapping R (Clotting time, min) [5, 6]: 7.1 ± 0.7 min
